The numbers were not newly measured in patent publication US20130210624A1, “COMPOSITION FOR IMPROVING PLANT HEALTH AND METHOD OF APPLYING SAME” (priority 2012, published 2013), which cites them from elsewhere.

For the series, the system named is oranges. The following applies: single prebloom foliar application; Albrigo 1999.

Regarding phosphite, the flower number result is given as “increased flower number” and the yield entry is given as “increased yield”.
